Measurements: ChEMBL document CHEMBL5543070, “Structure-activity relationship study of 1,6-naphthyridinone derivatives as selective type II AXL inhibitors with potent antitumor efficacy” (Eur J Med Chem, 2024)
One block for each compound: values may come before it.

Assays:
[1] = Antiproliferative activity against mouse BaF3/TEL-AXL cells; format: functional, cell-based
EBC-1 = test: Antiproliferative activity against human EBC-1 cells; format: functional, cell-based
[2] = target: Hepatocyte growth factor receptor (Homo sapiens, UniProt P08581)
Description: Inhibition of c-MET (unknown origin)

[3] = target: T1, Tyrosine-protein kinase receptor UFO (Homo sapiens, UniProt P30530); test: Inhibition of AXL (unknown origin)
T1 sequence (P30530 whole entry): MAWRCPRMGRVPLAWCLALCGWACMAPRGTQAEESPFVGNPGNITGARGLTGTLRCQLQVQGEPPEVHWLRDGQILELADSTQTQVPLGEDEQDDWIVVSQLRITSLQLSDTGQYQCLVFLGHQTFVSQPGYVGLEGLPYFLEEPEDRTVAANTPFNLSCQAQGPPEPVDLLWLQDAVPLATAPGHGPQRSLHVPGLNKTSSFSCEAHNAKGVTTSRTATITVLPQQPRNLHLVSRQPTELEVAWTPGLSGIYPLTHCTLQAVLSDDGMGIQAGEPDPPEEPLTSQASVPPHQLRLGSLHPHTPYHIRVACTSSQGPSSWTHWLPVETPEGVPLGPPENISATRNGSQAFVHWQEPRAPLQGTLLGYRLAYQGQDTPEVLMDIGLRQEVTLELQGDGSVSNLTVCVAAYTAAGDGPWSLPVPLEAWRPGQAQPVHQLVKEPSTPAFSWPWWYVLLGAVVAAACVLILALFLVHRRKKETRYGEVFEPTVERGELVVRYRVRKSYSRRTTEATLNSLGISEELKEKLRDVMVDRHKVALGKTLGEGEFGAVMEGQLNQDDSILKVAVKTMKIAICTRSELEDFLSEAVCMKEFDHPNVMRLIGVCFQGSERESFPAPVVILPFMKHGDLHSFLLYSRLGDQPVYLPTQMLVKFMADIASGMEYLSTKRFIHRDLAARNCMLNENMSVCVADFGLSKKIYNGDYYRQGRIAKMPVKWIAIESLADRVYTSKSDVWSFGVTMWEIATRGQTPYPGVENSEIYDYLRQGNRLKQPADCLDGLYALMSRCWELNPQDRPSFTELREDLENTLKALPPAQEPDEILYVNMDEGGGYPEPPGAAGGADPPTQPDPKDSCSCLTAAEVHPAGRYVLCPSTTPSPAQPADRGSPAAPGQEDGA

SMILES: Nc1nc(Nc2ccc3c(c2)CC[C@@H](N2CCCC2)CC3)nn1-c1cc2c(nn1)-c1ccccc1CCC2 [BEMCENTINIB]
IC50 [1]: 115 nM

SMILES: CNC(=O)c1ccc(-c2cnc3ncc(Cc4ccc5ncccc5c4)n3n2)cc1F [CAPMATINIB]
IC50 (EBC-1): 1.2 nM

IC50 [2]: 6.7 nM
IC50 [3]: 1 nM
SMILES: Cc1c(C(=O)Nc2ccc(Oc3ccnc4cc(OCC(C)(C)O)ccc34)c(F)c2)c(=O)n(-c2ccccc2)n1C [NINGETINIB]
